# From PubChem BioAssay (NCI)
#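 Protocol summary: plate cells (96-well), add compound at 5 concentrations, incubate 48 h, interpolate endpoints linearly. GI50: concentration for 50% inhibition of growth. TGI: concentration producing complete growth inhibition.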
# Experiments:
# Test in all cases: NCI anticancer screen, dose series, 48 h
# HOP-62 NSCLC = system: HOP-62 NSCLC
# NCI-H23 lung = system: NCI-H23 lung
# SK-OV-3 ovarian = system: SK-OV-3 ovarian
# HOP-92 NSCLC = system: HOP-92 NSCLC
# COLO 205 colon = system: COLO 205 colon
# HCT-15 colon = system: HCT-15 colon
# UO-31 renal = system: UO-31 renal
# NCI-H226 lung = system: NCI-H226 lung
# UACC-257 melanoma = system: UACC-257 melanoma
# SN12C renal = system: SN12C renal
# MOLT-4 leukemia = system: MOLT-4 leukemia
# NCI/ADR-RES ovarian = system: NCI/ADR-RES ovarian
# IGROV1 ovarian = system: IGROV1 ovarian
# MCF7 breast = system: MCF7 breast
# OVCAR-8 ovarian = system: OVCAR-8 ovarian
# PC-3 prostate = system: PC-3 prostate
# SK-MEL-28 melanoma = system: SK-MEL-28 melanoma
# ACHN renal = system: ACHN renal
# OVCAR-4 ovarian = system: OVCAR-4 ovarian
# BT-549 breast = system: BT-549 breast
# SF-268 CNS = system: SF-268 CNS
# SW-620 colon = system: SW-620 colon
# U251 CNS = system: U251 CNS
# RPMI-8226 leukemia = system: RPMI-8226 leukemia
# HCC-2998 colon = system: HCC-2998 colon
# A498 renal = system: A498 renal
# HL-60(TB) leukemia = system: HL-60(TB) leukemia
# UACC-62 melanoma = system: UACC-62 melanoma
# NCI-H522 lung = system: NCI-H522 lung
# SK-MEL-5 melanoma = system: SK-MEL-5 melanoma
# NCI-H460 lung = system: NCI-H460 lung
# HS 578T breast = system: HS 578T breast
# SK-MEL-2 melanoma = system: SK-MEL-2 melanoma
# RXF 393 renal = system: RXF 393 renal
# M14 melanoma = system: M14 melanoma
# MALME-3M melanoma = system: MALME-3M melanoma
# SF-539 CNS = system: SF-539 CNS
# KM12 colon = system: KM12 colon
# A549 NSCLC = system: A549 NSCLC
# CCRF-CEM leukemia = system: CCRF-CEM leukemia
# SF-295 CNS = system: SF-295 CNS
# DU-145 prostate = system: DU-145 prostate
# LOX IMVI melanoma = system: LOX IMVI melanoma
# K-562 leukemia = system: K-562 leukemia
# MDA-MB-231 breast = system: MDA-MB-231 breast
# SNB-75 CNS = system: SNB-75 CNS
# EKVX NSCLC = system: EKVX NSCLC
# HCT-116 colon = system: HCT-116 colon
# CAKI-1 renal = system: CAKI-1 renal
# SR leukemia = system: SR leukemia
# OVCAR-5 ovarian = system: OVCAR-5 ovarian
# HT29 colon = system: HT29 colon
# OVCAR-3 ovarian = system: OVCAR-3 ovarian
# TK-10 renal = system: TK-10 renal
smiles,measurement,setting,value
COc1ccc(C(=O)N2c3ccccc3Sc3ccccc32)c(C(F)(F)F)c1,GI50,HOP-62 NSCLC,0.684 µM
same,TGI,HOP-62 NSCLC,> 100 µM
same,GI50,NCI-H23 lung,0.578 µM
same,TGI,NCI-H23 lung,> 100 µM
same,GI50,SK-OV-3 ovarian,0.794 µM
same,TGI,SK-OV-3 ovarian,> 100 µM
same,GI50,HOP-92 NSCLC,0.152 µM
same,TGI,HOP-92 NSCLC,3.91 µM
same,GI50,COLO 205 colon,0.319 µM
same,TGI,COLO 205 colon,1.48 µM
same,GI50,HCT-15 colon,0.405 µM
same,TGI,HCT-15 colon,> 100 µM
same,GI50,UO-31 renal,2.62 µM
same,TGI,UO-31 renal,> 100 µM
same,GI50,NCI-H226 lung,1.39 µM
same,TGI,NCI-H226 lung,83.8 µM
same,GI50,UACC-257 melanoma,13.7 µM
same,TGI,UACC-257 melanoma,> 100 µM
same,GI50,SN12C renal,1.3 µM
same,TGI,SN12C renal,> 100 µM
same,GI50,MOLT-4 leukemia,0.406 µM
same,TGI,MOLT-4 leukemia,> 100 µM
same,GI50,NCI/ADR-RES ovarian,0.37 µM
same,TGI,NCI/ADR-RES ovarian,> 100 µM
same,GI50,IGROV1 ovarian,2.2 µM
same,TGI,IGROV1 ovarian,> 100 µM
same,GI50,MCF7 breast,0.411 µM
same,TGI,MCF7 breast,> 100 µM
same,GI50,OVCAR-8 ovarian,0.593 µM
same,TGI,OVCAR-8 ovarian,> 100 µM
same,GI50,PC-3 prostate,0.426 µM
same,TGI,PC-3 prostate,> 100 µM
same,GI50,SK-MEL-28 melanoma,9.17 µM
same,TGI,SK-MEL-28 melanoma,> 100 µM
same,GI50,ACHN renal,1.33 µM
same,TGI,ACHN renal,> 100 µM
same,GI50,OVCAR-4 ovarian,1.98 µM
same,TGI,OVCAR-4 ovarian,> 100 µM
same,GI50,BT-549 breast,0.892 µM
same,TGI,BT-549 breast,13.6 µM
same,GI50,SF-268 CNS,3.04 µM
same,TGI,SF-268 CNS,> 100 µM
same,GI50,SW-620 colon,0.425 µM
same,TGI,SW-620 colon,> 100 µM
same,GI50,U251 CNS,0.5 µM
same,TGI,U251 CNS,> 100 µM
same,GI50,RPMI-8226 leukemia,0.595 µM
same,TGI,RPMI-8226 leukemia,> 100 µM
same,GI50,HCC-2998 colon,0.467 µM
same,TGI,HCC-2998 colon,32 µM
same,GI50,A498 renal,0.282 µM
same,TGI,A498 renal,0.877 µM
same,GI50,HL-60(TB) leukemia,0.252 µM
same,TGI,HL-60(TB) leukemia,0.793 µM
same,GI50,UACC-62 melanoma,0.438 µM
same,TGI,UACC-62 melanoma,> 100 µM
same,GI50,NCI-H522 lung,0.32 µM
same,TGI,NCI-H522 lung,14.5 µM
same,GI50,SK-MEL-5 melanoma,0.692 µM
same,TGI,SK-MEL-5 melanoma,16.6 µM
same,GI50,NCI-H460 lung,0.383 µM
same,TGI,NCI-H460 lung,> 100 µM
same,GI50,HS 578T breast,0.472 µM
same,TGI,HS 578T breast,> 100 µM
same,GI50,SK-MEL-2 melanoma,0.677 µM
same,TGI,SK-MEL-2 melanoma,> 100 µM
same,GI50,RXF 393 renal,0.362 µM
same,TGI,RXF 393 renal,> 100 µM
same,GI50,M14 melanoma,0.343 µM
same,TGI,M14 melanoma,> 100 µM
same,GI50,MALME-3M melanoma,25.8 µM
same,TGI,MALME-3M melanoma,> 100 µM
same,GI50,SF-539 CNS,0.271 µM
same,TGI,SF-539 CNS,0.995 µM
same,GI50,KM12 colon,0.413 µM
same,TGI,KM12 colon,34.4 µM
same,GI50,A549 NSCLC,0.515 µM
same,TGI,A549 NSCLC,> 100 µM
same,GI50,CCRF-CEM leukemia,0.0879 µM
same,TGI,CCRF-CEM leukemia,> 100 µM
same,GI50,SF-295 CNS,0.372 µM
same,TGI,SF-295 CNS,> 100 µM
same,GI50,DU-145 prostate,0.433 µM
same,TGI,DU-145 prostate,> 100 µM
same,GI50,LOX IMVI melanoma,0.516 µM
same,TGI,LOX IMVI melanoma,> 100 µM
same,GI50,K-562 leukemia,0.349 µM
same,TGI,K-562 leukemia,> 100 µM
same,GI50,MDA-MB-231 breast,1.16 µM
same,TGI,MDA-MB-231 breast,92.2 µM
same,GI50,SNB-75 CNS,0.264 µM
same,TGI,SNB-75 CNS,> 100 µM
same,GI50,EKVX NSCLC,0.613 µM
same,TGI,EKVX NSCLC,> 100 µM
same,GI50,HCT-116 colon,0.505 µM
same,TGI,HCT-116 colon,> 100 µM
same,GI50,CAKI-1 renal,0.692 µM
same,TGI,CAKI-1 renal,> 100 µM
same,GI50,SR leukemia,0.312 µM
same,TGI,SR leukemia,76.9 µM
same,GI50,OVCAR-5 ovarian,1.61 µM
same,TGI,OVCAR-5 ovarian,> 100 µM
same,GI50,HT29 colon,0.362 µM
same,TGI,HT29 colon,> 100 µM
same,GI50,OVCAR-3 ovarian,0.332 µM
same,TGI,OVCAR-3 ovarian,28.1 µM
same,GI50,TK-10 renal,16.7 µM
same,TGI,TK-10 renal,> 100 µM
